Results as given in US20060247320A1, “Compounds for inhibiting KSP kinesin activity” (priority 2005, published 2006).

molecular target: T1, KSP motor domain (Homo sapiens, UniProt P52732); experiment: biochemical; settings: IC50 (nM), KSP inhibitory activity, end-point assay; class symbols (Table 1)
T1 sequence (P52732 18-359 limits assumed): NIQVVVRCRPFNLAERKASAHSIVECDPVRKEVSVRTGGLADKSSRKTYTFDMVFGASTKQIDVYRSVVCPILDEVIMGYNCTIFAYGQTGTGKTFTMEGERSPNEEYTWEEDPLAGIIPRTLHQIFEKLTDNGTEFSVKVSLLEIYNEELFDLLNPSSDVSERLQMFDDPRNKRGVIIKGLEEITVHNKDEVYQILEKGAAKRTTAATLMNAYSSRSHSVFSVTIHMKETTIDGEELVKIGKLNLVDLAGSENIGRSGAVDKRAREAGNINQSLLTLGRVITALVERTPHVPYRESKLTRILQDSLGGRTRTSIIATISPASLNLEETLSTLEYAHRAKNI

| Structure (SMILES) | IC50 [nM] |
| --- | --- |
| CCOC(=O)c1cc2cc3c(nc2s1)CCC([Si](C)(C)C)C3 (stereo not drawn) [Example 188, Ethyl 5,6,7,8-Tetrahydro-6-(Trimethylsilyl)thieno[2,3b]quinoline-2-Carboxylate] | > 10000 |
| CC(C)(C)C1CCc2nc3sc(COC(N)=O)cc3cc2C1 (stereo not drawn) [Example 147] | 1000 to 10000 |

same assay, conditions: KSP inhibitory activity, end-point assay; class symbols (Table 1); read-out: IC50

| Structure (SMILES) | IC50 [nM] |
| --- | --- |
| CC(C)(C)[C@@H]1CCc2nc3sc(C(=O)N[C@H](CN)c4ccc(NC(=O)c5ccco5)cc4)cc3cc2C1 [Example 273, 6(R)-tert-Butyl-5,6,7,8-tetrahydro-thieno[2,3-b]quinoline-2-carboxylic acid (2-amino-1(S)-{4-[(furan-2-carbonyl)-amino]-phenyl}-ethyl)-amide] | < 100 |
| CC(C)(C)C1CCc2nc3sc(C(=O)N[C@H](CN)Cc4ccccc4)cc3cc2C1 (stereo partly drawn) [Example 179] | 100 to 1000 |
| Cc1oncc1C(=O)Nc1cccc([C@@H](CN)NC(=O)c2cc3cc4c(nc3s2)CC[C@@H](C(C)(C)C)C4)c1 [Example 233] | < 100 |
| CCC(C)C1CCc2nc3sc(C#N)c(N)c3cc2C1 (stereo not drawn) [Example 21] | 1000 to 10000 |
| CCOC(=O)Nc1cccc(C(CN)NC(=O)c2cc3cc4c(nc3s2)CCC(C(C)(C)C)C4)c1 (stereo not drawn) [Example 223, (3-{2-amino-1-[(6-tert-butyl-5,6,7,8-tetrahydrothieno[2,3-b]quinoline-2-carbonyl)amino]ethyl}phenyl)carbamic acid ethyl ester] | < 100 |
| Cc1cc(C(=O)Nc2cccc([C@@H](CNCCO)NC(=O)c3cc4cc5c(nc4s3)CC[C@@H](C(C)(C)C)C5)c2)no1 [Example 266, 6(R)-tert-butyl-5,6,7,8-tetrahydro-thieno[2,3-b]quinoline-2-carboxylic acid (2-(2-hydroxy-ethylamino)-1(S)-{3-[(5-methyl-isoxazole-3-carbonyl)-amino]-phenyl}-ethyl)-amide] | < 100 |
| CC(C)(C)C1CCc2nc3sc(C(=O)Nc4ccc(N)nc4)cc3cc2C1 (stereo not drawn) [Example 226J] | 100 to 1000 |
| CC(O)CNC(=O)c1cc2cc3c(nc2s1)CCC(C(C)(C)C)C3 (stereo not drawn) [Example 103] | 1000 to 10000 |
| CC(C)(C)C1CCc2nc3sc(CNC(=O)C4CC4)cc3cc2C1 (stereo not drawn) [Example 155] | 1000 to 10000 |
| CC(C)(C)[C@@H]1CCc2nc3sc(C(=O)N[C@H](CNCCO)c4cccc(NC(=O)c5ncco5)c4)cc3cc2C1 [Example 265, 6-tert-Butyl-5,6,7,8-tetrahydrothieno[2,3-b]quinoline-2-carboxylic acid (2-(2-hydroxy-ethylamino)-1-{3-[(oxazole-2-carbonyl)amino]phenyl}ethyl)amide] | < 100 |
| CC(C)(C)C1CCc2nc3sc(C(=O)N4CCNCC4)cc3cc2C1 (stereo not drawn) [Example 95] | > 10000 |
| CC(C)(C)C1CCc2nc3sc(C#N)c(Br)c3cc2C1 (stereo not drawn) [Example 112, 6-tert-Butyl-3-bromo-5,6,7,8-tetrahydrothieno[2,3-b]quinoline-2-carbonitrile] | > 10000 |
| CCC(C)(C)C1C=Cc2nc3sc(C(N)=O)cc3cc2C1 (stereo not drawn) [Example 114] | < 100 |
| COC(=O)[C@@H]1C[C@@H](O)CN1C(=O)c1cc2cc3c(nc2s1)CCC(C(C)(C)C)C3 (stereo partly drawn) [Example 84] | 1000 to 10000 |
| CCC(C(C)C)C1CCc2nc3sc(C#N)c(N)c3cc2C1 (stereo not drawn) [Example 28] | 100 to 1000 |
| CC(C)C1Cc2cc3cc(C#N)sc3nc2CC1C (stereo not drawn) [Example 208, 6-isopropyl-7-methyl-5,6,7,8-tetrahydro-thieno[2,3,-b]quinoline-2-carbonitrile] | 100 to 1000 |
| CC(C)(C)[C@@H]1CCc2nc3sc(C(=O)N[C@H](CN)c4ccc(NC(=O)c5cocn5)cc4)cc3cc2C1 [Example 271] | < 100 |
| C[C@@H](CN)NC(=O)c1cc2cc3c(nc2s1)CCC(C(C)(C)C)C3 (stereo partly drawn) [Example 176] | < 100 |
| N#Cc1sc2nc3c(cc2c1N)CC(Cc1ccccc1)CC3 (stereo not drawn) [Example 31] | > 10000 |

| Structure (SMILES) | IC50 [nM] |
| --- | --- |
| CC(C)(C)C1CCc2nc3sc(C(=O)NCCCO)cc3cc2C1 (stereo not drawn) [Example 102] | 100 to 1000 |
| CC(C)(C)C1CCc2nc3sc(C#N)nc3cc2C1 (stereo not drawn) [Example 130, 7-tert-Butyl-5,6,7,8-tetrahydrothiazolo[5,4-b]quinoline-2-carbonitrile] | 1000 to 10000 |
| CC(C)C1CCc2cc3c(N)c(C#N)sc3nc2C1 (stereo not drawn) [Example 51] | > 10000 |
| CC(CO)NC(=O)c1cc2cc3c(nc2s1)CCC(C(C)(C)C)C3 (stereo not drawn) [Example 83] | 100 to 1000 |
| CC(C)(C)C1CCc2nc3c(cc2C1)C(N)=C(C#N)S3(=O)=O (stereo not drawn) [Example 127, 3-Amino-6-tert-butyl-1,1-dioxo-5,6,7,8-tetrahydro-1H-1λ^6-thieno[2,3-b]quinoline-2-carbonitrile] | 1000 to 10000 |
| CC(C)(C)C1CCc2nc3sc(S)nc3cc2C1 (stereo not drawn) [Example 128, 7-tert-Butyl-5,6,7,8-tetrahydrothiazolo[5,4-b]quinoline-2-thiol] | 100 to 1000 |
| CC(C)(C)C1CCc2nc3sc(C(=O)NN4CCOCC4)cc3cc2C1 (stereo not drawn) [Example 200, 6-(1,1-Dimethylethyl)-5,6,7,8-Tetrahydro-N-(4-Morpholinyl)thieno[2,3-b]quinoline-2-Carboxamide] | 1000 to 10000 |
| CCCC1CCc2nc3sc(C#N)c(N)c3cc2C1 (stereo not drawn) [Example 15] | 1000 to 10000 |
| CC(C)(C)C1CCc2nc3sc(CO)cc3cc2C1 (stereo not drawn) [Example 144] | < 100 |
| CC(C)(C)C1CCc2nc3sc(C(=O)N[C@H](CO)Cc4ccc(O)cc4)cc3cc2C1 (stereo partly drawn) [Example 161, 6-tert-Butyl-5,6,7,8-tetrahydrothieno[2,3-b]quinoline-2-carboxylic acid [2-hydroxy-(1S)-1-(4-hydroxybenzyl)ethyl]amide] | > 10000 |
| Cn1cnc(C(=O)Nc2cccc([C@@H](CN)NC(=O)c3cc4cc5c(nc4s3)CC[C@@H](C(C)(C)C)C5)c2)c1 [Example 249] | < 100 |
| CCCC1(CCC)CCc2nc3sc(C#N)c(N)c3cc2C1 [Example 16] | > 10000 |
| CC(C)(C)[C@@H]1CCc2nc3sc(C(=O)N[C@H](CN)c4cccc(NC(=O)c5ccc[nH]5)c4)cc3cc2C1 [Example 252] | < 100 |
| CCC(C)(C)C1Cc2cc3c(N)c(C#N)sc3nc2C1 (stereo not drawn) [Example 38] | 1000 to 10000 |
| CC(C)(C)[C@@H]1CCc2nc3sc(C(=O)N[C@H](CN)c4cccc(NC(=O)c5cnc6ccccc6n5)c4)cc3cc2C1 [Example 228] | < 100 |
| Cc1ncnc(C)c1C(=O)Nc1ccc([C@@H](CN)NC(=O)c2cc3cc4c(nc3s2)CC[C@@H](C(C)(C)C)C4)cc1 [Example 272] | < 100 |
| Cc1cccc([C@@H](CN)NC(=O)c2cc3cc4c(nc3s2)CCC(C(C)(C)C)C4)c1 (stereo partly drawn) [Example 220] | < 100 |
| CC(C)(C)C1CCc2nc3sc(-c4nnc[nH]4)cc3cc2C1 (stereo not drawn) [Example 182, 6-tert-Butyl-2-(4H-[1,2,4]triazol-3-yl)-5,6,7,8-tetrahydrothieno[2,3-b]quinoline] | 100 to 1000 |
| N#Cc1sc2nc3c(cc2c1N)CC(C1CCCCC1)CC3 (stereo not drawn) [Example 18] | > 10000 |

| Structure (SMILES) | IC50 [nM] |
| --- | --- |
| CC(C)(C)C1CCc2nc3sc(C(=O)N4CCCC[C@@H]4C(=O)O)cc3cc2C1 (stereo partly drawn) [Example 91] | > 10000 |
| CC(C)(C)C1CCc2nc3sc(C(=O)N[C@@H](Cc4ccccc4)C(=N)N)cc3cc2C1 (stereo partly drawn) [Example 173] | 1000 to 10000 |
| CC(C)(C)C1CCc2nc3sc(C(=O)N[C@H](C#N)Cc4ccc(O)cc4)cc3cc2C1 (stereo partly drawn) [Example 164] | 100 to 1000 |
| CCCC1CCc2cc3c(N)c(C#N)sc3nc2C1 (stereo not drawn) [Example 49] | > 10000 |
| CC(C)(C)C1CCc2nc3sc(CC(N)=O)cc3cc2C1 (stereo not drawn) [Example 149] | 1000 to 10000 |
| Cc1ccc([C@@H](CN)NC(=O)c2cc3cc4c(nc3s2)CCC(C(C)(C)C)C4)cc1 (stereo partly drawn) [Example 221] | < 100 |
| CC(C)(C)[C@@H]1CCc2nc3sc(C(=O)N[C@H](CN)c4cccc(NCc5ccncc5)c4)cc3cc2C1 [Example 281, 6(R)-tert-Butyl-5,6,7,8,-tetrahydro-thieno[2,3-b]quinoline-2-carboxylic acid (2(S)-amino-1-{3-[(pyridin-4-ylmethyl)-amino]-phenyl}-ethyl)-amide] | < 100 |
| CC(C)(C)C1CCc2nc3sc(C(=O)NCC(=N)N)cc3cc2C1 (stereo not drawn) [Example 168, 6-tert-Butyl-5,6,7,8-tetrahydrothieno[2,3-b]quinoline-2-carboxylic acid carbamimidoylmethylamide] | < 100 |
| CC1(C2CCc3nc4sc(C#N)c(N)c4cc3C2)CC1 (stereo not drawn) [Example 43] | 100 to 1000 |
| CC(C)(C)C1CCc2nc3sc(CN)cc3cc2C1 (stereo not drawn) [Example 153] | 1000 to 10000 |
| CCCCCC1CCc2nc3sc(C#N)c(N)c3cc2C1 (stereo not drawn) [Example 19] | > 10000 |
| CCC(C)(C)C1CCc2nc3sc(C(N)=O)cc3c(Cl)c2C1 (stereo not drawn) [Example 115] | 1000 to 10000 |
| Cn1nccc1C(=O)Nc1cccc([C@@H](CNCCO)NC(=O)c2cc3cc4c(nc3s2)CC[C@@H](C(C)(C)C)C4)c1 [Example 267] | 100 to 1000 |
| Cn1nccc1C(=O)Nc1cccc([C@@H](CN)NC(=O)c2cc3cc4c(nc3s2)CC[C@@H](C(C)(C)C)C4)c1 [Example 238] | < 100 |
| CCC(C)(C)C1CCc2nc3sc(-c4nn[nH]n4)cc3cc2C1 (stereo not drawn) [Example 72] | 1000 to 10000 |
| CC(C)(C)C1CCc2nc3sc(C(=O)Nc4cccnc4)cc3cc2C1 (stereo not drawn) [Example 226B] | 100 to 1000 |
| CC(C)(C)C1CCCc2nc3sc(C(N)=O)cc3cc2C1 (stereo not drawn) [Example 65] | < 100 |
| CC1(C2CCc3nc4sc(C#N)c(N)c4cc3C2)CCCC1 (stereo not drawn) [Example 6] | 100 to 1000 |
| CC(=O)Nc1cc2cc3c(nc2s1)CCC(C(C)(C)C)C3 (stereo not drawn) [Example 124, N-(6-tert-Butyl-5,6,7,8-tetrahydrothieno[2,3-b]quinolin-2-yl)acetamide] | 1000 to 10000 |

same assay, conditions: exact IC50 values, end-point assay (Table 2); read-out: IC50

| Structure (SMILES) | IC50 [nM] |
| --- | --- |
| CC(C)(C)[C@@H]1CCc2nc3sc(C(=O)N[C@H](CN)c4ccc(NC(=O)c5ccco5)cc4)cc3cc2C1 [Example 273, 6(R)-tert-Butyl-5,6,7,8-tetrahydro-thieno[2,3-b]quinoline-2-carboxylic acid (2-amino-1(S)-{4-[(furan-2-carbonyl)-amino]-phenyl}-ethyl)-amide] | 17 |
| CC(C)(C)C1CCc2nc3sc(CO)cc3cc2C1 (stereo not drawn) [Example 144] | 60 |
| CC(C)(C)C1CCc2nc3sc(C(=O)NCC(=N)N)cc3cc2C1 (stereo not drawn) [Example 168, 6-tert-Butyl-5,6,7,8-tetrahydrothieno[2,3-b]quinoline-2-carboxylic acid carbamimidoylmethylamide] | 8 |
| CC(C)(C)C1CCCc2nc3sc(C(N)=O)cc3cc2C1 (stereo not drawn) [Example 65] | 62 |
